For two compounds, EC50 and IC50 results are on record in ChEMBL document CHEMBL1128775, “Specific affinity labeling of opioid receptors in rat brain by S-activated sulfhydryldihydromorphine analogs” (Bioorg Med Chem Lett, 1995).

By pEC50 is commonly meant −log10 of the EC50, conventionally taken in molar units. In general, pIC50 refers to the IC50 on a negative log10 scale, so that one unit is a factor of ten. A lower pIC50 goes with a large IC50.

Common to all, as to assay type: tissue-based
The target of assay [1] is T1, Mu-type opioid receptor (Rattus norvegicus, UniProt P33535). Briefly: Compound was evaluated for its binding affinity to mu opioid receptors in rat brain.
Assay [2] has as its target T1, Mu-type opioid receptor. In words: Ability to displace [3H][D-Ala2,MePhe4,Gly-ol5]enkephalin ([3H]DAGO) from mu opioid receptors in rat brain.
The target of assay [3] is T2, Delta-type opioid receptor (Rattus norvegicus, UniProt P33533). Briefly: Compound was evaluated for its binding affinity to Opioid receptor delta 1 in rat brain.
Assay [4] has as its target T2, Delta-type opioid receptor. In words: Ability to displace [3H][D-Ser2,Leu5]enkephalin-Thr ([3H]DSLET) from Opioid receptor delta 1 in rat brain.

pEC50, pIC50: −log10 of the molar value.

T2 sequence (P33533 whole entry): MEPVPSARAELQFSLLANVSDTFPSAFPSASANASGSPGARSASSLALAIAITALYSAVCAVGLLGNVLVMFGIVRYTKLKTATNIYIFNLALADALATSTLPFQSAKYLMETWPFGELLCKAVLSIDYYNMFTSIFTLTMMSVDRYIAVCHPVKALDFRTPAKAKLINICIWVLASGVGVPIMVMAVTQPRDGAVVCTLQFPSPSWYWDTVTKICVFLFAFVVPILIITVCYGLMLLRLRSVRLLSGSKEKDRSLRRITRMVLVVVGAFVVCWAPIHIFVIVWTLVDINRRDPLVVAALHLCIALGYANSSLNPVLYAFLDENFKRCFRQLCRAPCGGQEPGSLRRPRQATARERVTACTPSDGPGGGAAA
T1 sequence (P33535 whole entry): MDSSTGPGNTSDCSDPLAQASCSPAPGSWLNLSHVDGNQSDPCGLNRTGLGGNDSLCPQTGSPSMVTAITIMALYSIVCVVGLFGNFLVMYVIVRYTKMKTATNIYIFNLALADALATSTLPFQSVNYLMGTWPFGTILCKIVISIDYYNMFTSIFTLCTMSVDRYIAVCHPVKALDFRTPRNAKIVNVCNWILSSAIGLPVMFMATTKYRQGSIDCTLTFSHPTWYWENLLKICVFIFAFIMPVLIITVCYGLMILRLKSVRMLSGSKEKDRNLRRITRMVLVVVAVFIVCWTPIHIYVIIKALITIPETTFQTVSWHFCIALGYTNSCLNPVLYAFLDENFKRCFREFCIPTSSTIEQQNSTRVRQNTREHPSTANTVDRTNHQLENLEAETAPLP

Turning to `CN1CC[C@]23c4c5ccc(O)c4O[C@H]2[C@@H](O)C[C@H](SSc2ccc([N+](=O)[O-])cn2)C3[C@H]1C5` (stereo partly drawn), the negative-log EC50 (pEC50) on Mu-type opioid receptor [1] was 5.77; in assay [3], 5.92. For the same compound, the pIC50 at Mu-type opioid receptor [2] is 7.24; in assay [4] it was 7.17.

Take `CN1CC[C@]23c4c5ccc(O)c4O[C@H]2[C@H](SSc2ccc([N+](=O)[O-])cn2)CCC3C1C5` (stereo partly drawn): the pEC50 was 7.24 on Mu-type opioid receptor [1] and 6.40 in assay [3]. In addition, the values for the negative logarithm of the IC50 (pIC50) (at Mu-type opioid receptor [2]; in assay [4]) were 7.51 and 6.69, respectively.
